Like-named read-outs stand apart in the source and are kept apart here.
What was measured:
Type in all cases: in vivo, Brassica napus
[1] = tested on: AHASL1A-A122T, A122T (Ho); conditions: 18 Days After Treatment, line AHASL1A-A122T; for Mean Percent Crop Phytotoxicity (% Crop Injury): field, 2-4 leaf stage
Source text: (§1) Hand-crossed hybrids were produced in the greenhouse between two IMI-tolerant spring Brassica napus parental lines: “BnCL131A1” (homozygous for the A genome IMI-tolerant mutation AHASL1A-A122(At)T-S653(At)N) and “PM1PM2” (homozygous for the A genome AHAS-inhibitor tolerant mutation AHASL1A-W574(At)L (PM2) plus the C genome AHAS-inhibitor tolerant mutation AHASL1C-S653(At)N(PM1)). The resulting heterozygous hand-crossed hybrid line, “PM1PM2/BnCL131A 1” (heterozygous for the stacked mutations: AHASL1A-A122(At)T-S653(At)N, AHASL1A-W574(At)L (PM2), AHASL1C-S653(At)N(PM1)) was field tested together with lines each containing only one AHAS-inhibitor tolerant mutation (homozygous or heterozygous) and several spring Brassica napus checks.
(§2) The three repetition trial was conducted in Simcoe, N. Dak., and used a randomized split block design. The trial was designed to measure the percent phytotoxicity (% crop injury) of the different entries under 5 different imidazolinone herbicide treatment rates. Plants were sprayed at the 2-4 leaf stage at a volume of 100 liters/ha. The imidazolinone herbicide rates used were as follows (Imazamox=BEYOND™ 120 g/I LC (BAS 72001H); NIS=INDUCE™ 90 (90% non-ionic surfactant; Helena Chemical Co., Collierville, Tenn.):
(§3) Crop Injury Ratings were determined in the field by assessing each plot in the trial for the level of phytotoxicity (percent crop injury) on a scale from 0-100% at 18 days after treatment. Mean values for each entry across the three replications along with their statistical significance (ANOVA) are presented in Table 6 (Ho=homozygous; He=heterozygous). Each value presented in Table 6 is the mean of three replications.
(§4) The percent phytotoxicity (% crop injury) ratings were transposed into Herbicide Tolerance ratings by subtracting the percent crop injury rating (Table 6) for each line from 100% to obtain the percent herbicide tolerance (Table 7) (Ho=homozygous; He=heterozygous).

[2] = tested on: BnCL131A1 (Ho), A122T-S653N (Ho); conditions: 18 Days After Treatment, line BnCL131A1 (Ho); for Mean Percent Crop Phytotoxicity (% Crop Injury): field, 2-4 leaf stage
Source text: as §1, §2, §3, §4

[3] = tested on: AHASL1A-S653N, S653N (Ho); conditions: 18 Days After Treatment, line AHASL1A-S653N; for Mean Percent Crop Phytotoxicity (% Crop Injury): field, 2-4 leaf stage
Source text: as §1, §2, §3, §4

[4] = tested on: BnCL131A1 (He), A122T-S653N (He); conditions: 18 Days After Treatment, line BnCL131A1 (He); for Mean Percent Crop Phytotoxicity (% Crop Injury): field, 2-4 leaf stage
Source text: as §1, §2, §3, §4

[5] = tested on: PM1PM2/BnCL131A1, S653N (He), W574L (He)/A122T-S653N (He); conditions: for Mean Percent Crop Phytotoxicity (% Crop Injury): field, 2-4 leaf stage; for Expected Additive % Herbicide Tolerance: sum of BnCL131A1 (He) + PM2 (AHASL1A-PM2) + PM1 (AHASL1C-PM1)
Source text: as §1, §2, §3, §4

[6] = tested on: PM2 (AHASL1A-PM2), W574L (Ho); conditions: 18 Days After Treatment, line PM2 (AHASL1A-PM2); for Mean Percent Crop Phytotoxicity (% Crop Injury): field, 2-4 leaf stage
Source text: as §1, §2, §3, §4

[7] = mean over 0, 35, 70, 140, 210 g ai/ha (N 15)

## COCc1cnc(C2=NC(C)(C(C)C)C(=O)N2)c(C(=O)O)c1 (centres unmarked) [imazamox]
[1]; 35 g ai/ha + 0.25% (v/v) NIS
  Mean Percent Crop Phytotoxicity (% Crop Injury): 70%
[1]; 35 g ai/ha
  Mean Percent Herbicide Tolerance (100% minus percent crop injury): 30.0%
[1]; 70 g ai/ha + 0.25% (v/v) NIS
  Mean Percent Crop Phytotoxicity (% Crop Injury): 78.33%
[1]; 70 g ai/ha
  Mean Percent Herbicide Tolerance (100% minus percent crop injury): 21.7%
[1]; 210 g ai/ha + 0.25% (v/v) NIS
  Mean Percent Crop Phytotoxicity (% Crop Injury): 70%
[1]; 210 g ai/ha
  Mean Percent Herbicide Tolerance (100% minus percent crop injury): 30.0%
[1]; [7]
  Mean Percent Crop Phytotoxicity (% Crop Injury), Mean over rates: 57%
[2]; 35 g ai/ha + 0.25% (v/v) NIS
  Mean Percent Crop Phytotoxicity (% Crop Injury): 16.67%
[2]; 35 g ai/ha
  Mean Percent Herbicide Tolerance (100% minus percent crop injury): 83.3%
[2]; 70 g ai/ha + 0.25% (v/v) NIS
  Mean Percent Crop Phytotoxicity (% Crop Injury): 31.67%
[2]; 70 g ai/ha
  Mean Percent Herbicide Tolerance (100% minus percent crop injury): 68.3%
[2]; 140 g ai/ha + 0.25% (v/v) NIS
  Mean Percent Crop Phytotoxicity (% Crop Injury): 43.33%
[2]; 140 g ai/ha
  Mean Percent Herbicide Tolerance (100% minus percent crop injury): 56.7%
[2]; 210 g ai/ha + 0.25% (v/v) NIS
  Mean Percent Crop Phytotoxicity (% Crop Injury): 55%
[2]; 210 g ai/ha
  Mean Percent Herbicide Tolerance (100% minus percent crop injury): 45.0%
[2]; [7]
  Mean Percent Crop Phytotoxicity (% Crop Injury), Mean over rates: 29.33%
[3]; 70 g ai/ha + 0.25% (v/v) NIS
  Mean Percent Crop Phytotoxicity (% Crop Injury): 78.33%
[3]; 70 g ai/ha
  Mean Percent Herbicide Tolerance (100% minus percent crop injury): 21.7%
[3]; 210 g ai/ha + 0.25% (v/v) NIS
  Mean Percent Crop Phytotoxicity (% Crop Injury): 90%
[3]; 210 g ai/ha
  Mean Percent Herbicide Tolerance (100% minus percent crop injury): 10.0%
[3]; [7]
  Mean Percent Crop Phytotoxicity (% Crop Injury), Mean over rates: 64.33%
[4]; 35 g ai/ha + 0.25% (v/v) NIS
  Mean Percent Crop Phytotoxicity (% Crop Injury): 33.33%
[4]; 35 g ai/ha
  Mean Percent Herbicide Tolerance (100% minus percent crop injury): 66.7%
[4]; 70 g ai/ha + 0.25% (v/v) NIS
  Mean Percent Crop Phytotoxicity (% Crop Injury): 60%
[4]; 70 g ai/ha
  Mean Percent Herbicide Tolerance (100% minus percent crop injury): 40.0%
[4]; 140 g ai/ha + 0.25% (v/v) NIS
  Mean Percent Crop Phytotoxicity (% Crop Injury): 80%
[4]; 140 g ai/ha
  Mean Percent Herbicide Tolerance (100% minus percent crop injury): 20.0%
[4]; 210 g ai/ha + 0.25% (v/v) NIS
  Mean Percent Crop Phytotoxicity (% Crop Injury): 73.33%
[4]; 210 g ai/ha
  Mean Percent Herbicide Tolerance (100% minus percent crop injury): 26.7%
[4]; [7]
  Mean Percent Crop Phytotoxicity (% Crop Injury), Mean over rates: 49.33%
[5]; 35 g ai/ha + 0.25% (v/v) NIS, 18 Days After Treatment, line PM1PM2/BnCL131A1
  Mean Percent Crop Phytotoxicity (% Crop Injury): 8.33%
[5]; 35 g ai/ha, 18 Days After Treatment, line PM1PM2/BnCL131A1
  Mean Percent Herbicide Tolerance (100% minus percent crop injury): 91.7%
[5]; 70 g ai/ha + 0.25% (v/v) NIS, 18 Days After Treatment, line PM1PM2/BnCL131A1
  Mean Percent Crop Phytotoxicity (% Crop Injury): 15%
[5]; 70 g ai/ha, 18 Days After Treatment, line PM1PM2/BnCL131A1
  Mean Percent Herbicide Tolerance (100% minus percent crop injury): 85.0%
[5]; 140 g ai/ha + 0.25% (v/v) NIS, 18 Days After Treatment, line PM1PM2/BnCL131A1
  Mean Percent Crop Phytotoxicity (% Crop Injury): 21.67%
[5]; 140 g ai/ha, 18 Days After Treatment, line PM1PM2/BnCL131A1
  Mean Percent Herbicide Tolerance (100% minus percent crop injury): 78.3%
[5]; 140 g ai/ha
  Expected Additive % Herbicide Tolerance: 45%
[5]; 140 g ai/ha, listed as Beyond
  Expected Additive % Herbicide Tolerance: 45.0%
[5]; 210 g ai/ha + 0.25% (v/v) NIS, 18 Days After Treatment, line PM1PM2/BnCL131A1
  Mean Percent Crop Phytotoxicity (% Crop Injury): 15%
[5]; 210 g ai/ha, 18 Days After Treatment, line PM1PM2/BnCL131A1
  Mean Percent Herbicide Tolerance (100% minus percent crop injury): 85%
[5]; 210 g ai/ha, 18 Days After Treatment, line PM1PM2/BnCL131A1, listed as Beyond
  Mean Percent Herbicide Tolerance (100% minus percent crop injury): 85.0%
[5]; 210 g ai/ha
  Expected Additive % Herbicide Tolerance: 55%
[5]; 210 g ai/ha, listed as Beyond
  Expected Additive % Herbicide Tolerance: 55.0%
[5]; mean over 0, 35, 70, 140, 210 g ai/ha (N 15), 18 Days After Treatment, line PM1PM2/BnCL131A1
  Mean Percent Crop Phytotoxicity (% Crop Injury), Mean over rates: 12%
[6]; 35 g ai/ha + 0.25% (v/v) NIS
  Mean Percent Crop Phytotoxicity (% Crop Injury): 36.67%
[6]; 35 g ai/ha
  Mean Percent Herbicide Tolerance (100% minus percent crop injury): 63.3%
[6]; 70 g ai/ha + 0.25% (v/v) NIS
  Mean Percent Crop Phytotoxicity (% Crop Injury): 46.67%
[6]; 70 g ai/ha
  Mean Percent Herbicide Tolerance (100% minus percent crop injury): 53.3%
[6]; 140 g ai/ha + 0.25% (v/v) NIS
  Mean Percent Crop Phytotoxicity (% Crop Injury): 83.33%
[6]; 140 g ai/ha
  Mean Percent Herbicide Tolerance (100% minus percent crop injury): 16.7%
[6]; 210 g ai/ha + 0.25% (v/v) NIS
  Mean Percent Crop Phytotoxicity (% Crop Injury): 80%
[6]; 210 g ai/ha
  Mean Percent Herbicide Tolerance (100% minus percent crop injury): 20.0%
[6]; [7]
  Mean Percent Crop Phytotoxicity (% Crop Injury), Mean over rates: 49.33%

From US20120060243A1, “Herbicide-Resistant AHAS-Mutants and Methods of Use” (priority 2008, published 2012)
